IC50 and EC50 data for 29 compounds are collected here from US20240376084A1, “INHIBITORS OF ALPHA-HEMOLYSIN OF STAPHYLOCOCCUS AUREUS” (Helmholtz-Zentrum Fur Infektionsforschung GmbH, priority 2021, published 2024).

pEC50, pIC50: −log10 of the molar value.

Assay [1] deals with hemolysin alpha from Staphylococcus aureus (Staphylococcus aureus, UniProt P09616). Put plainly: cell-based.
In assay [2] the target is S. aureus Alpha hemolysin (Staphylococcus aureus, UniProt P09616). Put plainly: cell-based. The settings on record: A549-LDH Assay activity.
Chain of S. aureus Alpha hemolysin (P09616 27-319 limits assumed): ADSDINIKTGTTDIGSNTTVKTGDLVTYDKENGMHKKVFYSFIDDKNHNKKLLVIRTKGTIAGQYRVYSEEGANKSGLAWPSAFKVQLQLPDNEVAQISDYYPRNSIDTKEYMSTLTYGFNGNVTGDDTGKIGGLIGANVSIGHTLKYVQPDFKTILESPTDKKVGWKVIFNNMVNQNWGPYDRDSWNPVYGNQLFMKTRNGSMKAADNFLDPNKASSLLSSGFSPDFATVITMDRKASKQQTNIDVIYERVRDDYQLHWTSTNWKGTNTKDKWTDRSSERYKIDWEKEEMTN

For orientation: pIC50 means −log10 of the IC50, conventionally taken in molar units. Usually pEC50 stands for −log10 of the EC50, conventionally taken in molar units. Read a high pEC50 as a low EC50.

Chain of hemolysin alpha from Staphylococcus aureus (P09616 27-319 limits assumed): as above

In turn, `Cc1cc2[nH]c(=O)c(=O)[nH]c2cc1S(=O)(=O)Nc1ccc(-c2cccc(Cl)c2)c(Cl)c1` [Compound 26, N-(2,3′-dichloro-[1,1′-biphenyl]-4-yl)-7-methyl-2,3-dioxo-1,2,3,4-tetrahydroquinoxaline-6-sulfonamide] had a pIC50 in assay [1] greater than 7.52. In assay [2], this compound had a pEC50 of 7.00 to 7.52.

Consider `O=c1[nH]c2cc(F)c(S(=O)(=O)Nc3ccc(-c4cccc(N5CCCC5)c4)c(Cl)c3)cc2[nH]c1=O` [Compound 27, N-(2-chloro-3′-(pyrrolidin-1-yl)-[1,1′-biphenyl]-4-yl)-7-fluoro-2,3-dioxo-1,2,3,4-tetrahydroquinoxaline-6-sulfonamide], for which, in assay [1], the pIC50 is greater than 7.52. In assay [2], this compound showed a pEC50 of 5.22 to 6.00.

Take `Cc1cc2[nH]c(=O)c(=O)[nH]c2cc1S(=O)(=O)Nc1ccc(OC(F)(F)F)cc1` [Compound 28, 7-methyl-2,3-dioxo-N-(4-(trifluoromethoxy)phenyl)-1,2,3,4-tetrahydroquinoxaline-6-sulfonamide]: the pIC50 in assay [1] was greater than 7.52. In assay [2], the pEC50 was greater than 7.52.

For `Cc1cc2[nH]c(=O)c(=O)[nH]c2cc1S(=O)(=O)Nc1ccc(-c2cccnc2)c(Cl)c1` [Compound 29, N-(3-chloro-4-(pyridin-3-yl)phenyl)-7-methyl-2,3-dioxo-1,2,3,4-tetrahydroquinoxaline-6-sulfonamide], the pIC50 in assay [1] was greater than 7.52. The pEC50 in assay [2] was 6.00 to 7.00.

The compound `Cc1cc2[nH]c(=O)c(=O)[nH]c2cc1S(=O)(=O)Nc1ccc(-c2ccnc(Cl)c2)c(Cl)c1` [Compound 30, N-(3-chloro-4-(2-chloropyridin-4-yl)phenyl)-7-methyl-2,3-dioxo-1,2,3,4-tetrahydroquinoxaline-6-sulfonamide] showed a pIC50 in assay [1] greater than 7.52. In assay [2], this compound showed a pEC50 of 7.00 to 7.52.

`CC(C)c1cc2[nH]c(=O)c(=O)[nH]c2cc1S(=O)(=O)Nc1ccc(OC(F)(F)F)cc1` [Compound 31, 7-isopropyl-2,3-dioxo-N-(4-(trifluoromethoxy)phenyl)-1,2,3,4-tetrahydroquinoxaline-6-sulfonamide]: the pIC50 in assay [1] is greater than 7.52. For the same compound, in assay [2], the negative-log EC50 (pEC50) was greater than 7.52.

With `O=c1[nH]c2cc(Cl)c(S(=O)(=O)Nc3ccc(-c4ccsc4)c(Cl)c3)cc2[nH]c1=O` [Compound 32, 7-chloro-N-(3-chloro-4-(thiophen-3-yl)phenyl)-2,3-dioxo-1,2,3,4-tetrahydroquinoxaline-6-sulfonamide], in assay [1], the pIC50 is greater than 7.52. For the same compound, the pEC50 in assay [2] was 6.00 to 7.00.

`Cc1cc(NS(=O)(=O)c2cc3[nH]c(=O)c(=O)[nH]c3cc2F)ccc1-c1ccccc1` [Compound 33, 7-fluoro-N-(2-methyl-[1,1′-biphenyl]-4-yl)-2,3-dioxo-1,2,3,4-tetrahydroquinoxaline-6-sulfonamide] showed a pIC50 in assay [1] greater than 7.52. Moreover, the pEC50 in assay [2] was 7.00 to 7.52.

`CN(C)c1cccc(-c2ccc(NS(=O)(=O)c3cc4[nH]c(=O)c(=O)[nH]c4cc3F)cc2Cl)c1` [Compound 34, N-(2-chloro-3′-(dimethylamino)-[1,1′-biphenyl]-4-yl)-7-fluoro-2,3-dioxo-1,2,3,4-tetrahydroquinoxaline-6-sulfonamide] had a negative-log IC50 (pIC50) in assay [1] greater than 7.52. The compound also showed a pEC50 in assay [2] of 6.00 to 7.00.

In assay [1], `O=c1[nH]c2cc(Cl)c(S(=O)(=O)Nc3ccc(-c4cccc(Cl)c4)c(Cl)c3)cc2[nH]c1=O` [Compound 35, 7-chloro-N-(2,3′-dichloro-[1,1′-biphenyl]-4-yl)-2,3-dioxo-1,2,3,4-tetrahydroquinoxaline-6-sulfonamide] gave a pIC50 greater than 7.52. This compound showed a pEC50 in assay [2] of 6.00 to 7.00.

Regarding `O=c1[nH]c2cc(F)c(S(=O)(=O)Nc3ccc(-c4ccccc4F)c(Cl)c3)cc2[nH]c1=O` [Compound 36, N-(2-chloro-2′-fluoro-[1,1′-biphenyl]-4-yl)-7-fluoro-2,3-dioxo-1,2,3,4-tetrahydroquinoxaline-6-sulfonamide], in assay [1], the pIC50 is greater than 7.52. In assay [2], this compound showed a pEC50 of 6.00 to 7.00.

As for `Cc1cc2[nH]c(=O)c(=O)[nH]c2cc1S(=O)(=O)Nc1ccc(-c2ccncc2)c(Cl)c1` [Compound 37, N-(3-chloro-4-(pyridin-4-yl)phenyl)-7-methyl-2,3-dioxo-1,2,3,4-tetrahydroquinoxaline-6-sulfonamide], in assay [1], the pIC50 was greater than 7.52. In assay [2], this compound gave a pEC50 of 7.00 to 7.52.

As to `Cc1ccc(-c2ccc(NS(=O)(=O)c3cc4[nH]c(=O)c(=O)[nH]c4cc3C)cc2Cl)cc1` [Compound 38, N-(2-chloro-4′-methyl-[1,1′-biphenyl]-4-yl)-7-methyl-2,3-dioxo-1,2,3,4-tetrahydroquinoxaline-6-sulfonamide], the negative-log IC50 (pIC50) in assay [1] is 7.00 to 7.52. For the same compound, the pEC50 in assay [2] was 6.00 to 7.00.

With `Cc1cc2[nH]c(=O)c(=O)[nH]c2cc1S(=O)(=O)Nc1ccc(-c2cccc(C(C)C)c2)c(Cl)c1` [Compound 39, N-(2-chloro-3′-isopropyl-[1,1′-biphenyl]-4-yl)-7-methyl-2,3-dioxo-1,2,3,4-tetrahydroquinoxaline-6-sulfonamide], the pIC50 in assay [1] was 7.00 to 7.52. The same compound gave a pEC50 in assay [2] of 5.22 to 6.00.

As for `O=c1[nH]c2cc(F)c(S(=O)(=O)Nc3ccc(-c4ccccc4)c(Cl)c3)cc2[nH]c1=O` [Compound 40, N-(2-chloro-[1,1′-biphenyl]-4-yl)-7-fluoro-2,3-dioxo-1,2,3,4-tetrahydroquinoxaline-6-sulfonamide], the negative-log IC50 (pIC50) in assay [1] was 7.00 to 7.52. Also, the pEC50 in assay [2] is 6.00 to 7.00.

As to `CCCc1ccc(NS(=O)(=O)c2cc3[nH]c(=O)c(=O)[nH]c3cc2Br)cc1` [Compound 41, 7-bromo-2,3-dioxo-N-(4-propylphenyl)-1,2,3,4-tetrahydroquinoxaline-6-sulfonamide], the pIC50 in assay [1] is 7.00 to 7.52. This compound also had a pEC50 in assay [2] of 7.00 to 7.52.

As for `Cc1cc2[nH]c(=O)c(=O)[nH]c2cc1S(=O)(=O)Nc1cc(C)c(-c2ccsc2)c(C)c1` [Compound 42, N-(3,5-dimethyl-4-(thiophen-3-yl)phenyl)-7-methyl-2,3-dioxo-1,2,3,4-tetrahydroquinoxaline-6-sulfonamide], in assay [1], the pIC50 is 7.00 to 7.52. Besides, the pEC50 in assay [2] is 6.00 to 7.00.

`Cc1cc2[nH]c(=O)c(=O)[nH]c2c(F)c1S(=O)(=O)Nc1ccc(-c2cccc(Cl)c2)c(Cl)c1` [Compound 43, N-(2,3′-dichloro-[1,1′-biphenyl]-4-yl)-5-fluoro-7-methyl-2,3-dioxo-1,2,3,4-tetrahydroquinoxaline-6-sulfonamide] had a pIC50 in assay [1] of 7.00 to 7.52. In assay [2], this compound had a pEC50 of 5.22 to 6.00.

Regarding `O=c1[nH]c2cc(Cl)c(S(=O)(=O)Nc3ccc(-c4ccoc4)c(Cl)c3)cc2[nH]c1=O` [Compound 44, 7-chloro-N-(3-chloro-4-(furan-3-yl)phenyl)-2,3-dioxo-1,2,3,4-tetrahydroquinoxaline-6-sulfonamide], the pIC50 in assay [1] is 7.00 to 7.52. In assay [2], this compound had a pEC50 of 6.00 to 7.00.

`Cc1cc(NS(=O)(=O)c2cc3[nH]c(=O)c(=O)[nH]c3cc2Cl)ccc1-c1ccccc1` [Compound 45, 7-chloro-N-(2-methyl-[1,1′-biphenyl]-4-yl)-2,3-dioxo-1,2,3,4-tetrahydroquinoxaline-6-sulfonamide] had a pIC50 in assay [1] of 7.00 to 7.52. Moreover, the pEC50 in assay [2] is 7.00 to 7.52.

`O=c1[nH]c2cc(Cl)c(S(=O)(=O)Nc3ccc(-c4ccc5c(c4)NCC5)c(Cl)c3)cc2[nH]c1=O` [Compound 46, 7-chloro-N-(3-chloro-4-(indolin-6-yl)phenyl)-2,3-dioxo-1,2,3,4-tetrahydroquinoxaline-6-sulfonamide] had a pIC50 in assay [1] of 7.00 to 7.52. Besides, in assay [2], the pEC50 was 6.00 to 7.00.

In the case of `O=c1[nH]c2cc(Cl)c(S(=O)(=O)Nc3ccc(OC(F)(F)F)cc3)cc2[nH]c1=O` [Compound 47, 7-chloro-2,3-dioxo-N-(4-(trifluoromethoxy)phenyl)-1,2,3,4-tetrahydroquinoxaline-6-sulfonamide], the pIC50 in assay [1] was 7.00 to 7.52. In assay [2], this compound gave a pEC50 of 7.00 to 7.52.

Compound `O=c1[nH]c2cc(Cl)c(S(=O)(=O)Nc3ccc(-c4cccnc4)c(Cl)c3)cc2[nH]c1=O` [Compound 48, 7-chloro-N-(3-chloro-4-(pyridin-3-yl)phenyl)-2,3-dioxo-1,2,3,4-tetrahydroquinoxaline-6-sulfonamide] gave a pIC50 in assay [1] of 7.00 to 7.52. This compound showed a pEC50 in assay [2] of 5.22 to 6.00.

In assay [1], `CCCc1ccc(NS(=O)(=O)c2cc3[nH]c(=O)c(=O)[nH]c3cc2C)cc1` [Compound 49, 7-methyl-2,3-dioxo-N-(4-propylphenyl)-1,2,3,4-tetrahydroquinoxaline-6-sulfonamide] gave a pIC50 greater than 7.52. Further, the pEC50 in assay [2] was 7.00 to 7.52.

In assay [1], `Cc1cc2[nH]c(=O)c(=O)[nH]c2cc1S(=O)(=O)Nc1ccc(C(F)(F)F)cc1` [Compound 50, 7-methyl-2,3-dioxo-N-(4-(trifluoromethyl)phenyl)-1,2,3,4-tetrahydroquinoxaline-6-sulfonamide] gave a pIC50 of 7.00 to 7.52. Further, in assay [2], the pEC50 was 7.00 to 7.52.

In assay [1], `Cc1cc2[nH]c(=O)c(=O)[nH]c2cc1S(=O)(=O)Nc1cc(C)c(-c2ccccc2F)c(C)c1` [Compound 51, N-(2′-fluoro-2,6-dimethyl-[1,1′-biphenyl]-4-yl)-7-methyl-2,3-dioxo-1,2,3,4-tetrahydroquinoxaline-6-sulfonamide] showed a pIC50 of 7.00 to 7.52. For the same compound, the pEC50 in assay [2] was 7.00 to 7.52.

`Cc1ccc(-c2ccc(NS(=O)(=O)c3cc4[nH]c(=O)c(=O)[nH]c4cc3C)cc2Cl)s1` [Compound 52, N-(3-chloro-4-(5-methylthiophen-2-yl)phenyl)-7-methyl-2,3-dioxo-1,2,3,4-tetrahydroquinoxaline-6-sulfonamide] had a pIC50 in assay [1] of 7.00 to 7.52. The compound also had a negative-log EC50 (pEC50) in assay [2] of 6.00 to 7.00.

In the case of `Cc1cc2[nH]c(=O)c(=O)[nH]c2cc1S(=O)(=O)Nc1ccc(C2CC2)cc1` [Compound 53, N-(4-cyclopropylphenyl)-7-methyl-2,3-dioxo-1,2,3,4-tetrahydroquinoxaline-6-sulfonamide], in assay [1], the pIC50 is 7.00 to 7.52. In addition, in assay [2], the pEC50 was greater than 7.52.

As to `Cc1cc2[nH]c(=O)c(=O)[nH]c2cc1S(=O)(=O)Nc1ccc2c(c1)CCCC2` [Compound 54, 7-methyl-2,3-dioxo-N-(5,6,7,8-tetrahydronaphthalen-2-yl)-1,2,3,4-tetrahydroquinoxaline-6-sulfonamide], the negative-log IC50 (pIC50) in assay [1] was 7.00 to 7.52. Further, in assay [2], the pEC50 was 6.00 to 7.00.
